{"source": "patent US8883765B2", "about": "“Anti-cytomegalovirus activity of artemisinin-derived dimers” (The John Hopkins University, priority 2009, dated 2014)", "key": {"[1]": {"tested_on": "pp 28-luciferase expressing CMV (Towne)", "assay": "microbe, parasite or virus in culture", "type": "cell-based, human CMV", "details": "for inhibition of CMV replication: different batches and passages of HFF, and HEL cells", "description": "A recombinant virus expressing luciferase reporter gene under the control of UL99 (pp 28) late promoter was generated by insertion of the reporter gene between the US9 and US10 ORFs in the Towne genome. […] Ahn J H, Hayward G S. Disruption of PML-associated nuclear bodies by IE1 correlates with efficient early stages of viral gene expression and DNA replication in human cytomegalovirus infection. Virology. 2000; 274:39-55.\n(§1) Towne-GFP, Towne-luciferase, and SB viruses were used in these assays. HFF or HEL were grown to subconfluent monolayers and infected with the CMV viruses at MOI 0.1 to 3. […] J Mol Med. 2002; 80:233-242. The concentration of each compound was calculated and adjusted by volume such that it was constant throughout the experiment. Following 90 minute incubation, media was replaced with fresh media containing the drug used. Infected and treated cells were incubated at 37° C. in a 5% CO2 atmosphere for 3-10 days depending on the virus and the anti-viral assay. The recombinant luciferase-expressing virus was incubated for 72 hours, the GFP virus was incubated for 5 days, and the clinical isolate for 10 days. All experiments were subsequently repeated with compounds added to wells just after viral inoculation."}, "[2]": {"tested_on": "CMV clinical isolates", "details": "11.1 μM; cited from earlier work"}, "[3]": {"tested_on": "Human Foreskin Fibroblasts (HFF)", "assay": "Cellular cytotoxicity, CellTiter-Glo Luminescent Cell Viability Assay", "details": "drug concentration that leads to 50% cellular cytotoxicity; mean and SD, at least five experiments in triplicates", "protocol": "(§2) Cellular cytotoxicity was determined using CellTiter-Glo® Luminescent Cell Viability Assay (Promega, Madison, Wis.). The assay determines the number of viable cells in culture based on quantification of the ATP present.\n(§3) For EC50 and CC50 reported values represent the mean and SD of data derived from at least five independent experiments performed in triplicates."}, "[4]": {"tested_on": "recombinant luciferase-expressing CMV", "assay": "Plaque reduction assay in human embryonic lung cells (HEL)", "type": "cell-based, human CMV", "details": "10 μM, luciferase virus", "protocol": "For plaque reduction assay, human embryonic lung cells were seeded into six-well plates and incubated at 37° C. one day prior to infection with the recombinant luciferase-expressing CMV. […] The virus was diluted to a desired concentration which gave 50-60 plaques per well. Medium was aspirated from the wells, and 0.2 ml of virus suspension was added to each well in triplicates. Plates were incubated for 90 minutes with shaking every 10 min, thereafter drugs were added and a methylcellulose overlay applied to each well. After incubation for 10 days, cells were stained with crystal violet. The stain was aspirated, wells were washed with phosphate-buffered saline, and plaques were counted."}, "[5]": {"tested_on": "CMV IE1 protein expression", "assay": "Western blot for CMV immediate early protein IE1 (and GFP)", "type": "cell-based, human CMV", "parameters": "expression of IE1 and GFP: dose or concentration left out as unconfirmed", "details": "for IE1 expression: clinical isolate SB, MOI=1; for expression of IE1 and GFP: Towne-GFP, artemisinin", "method": "Monoclonal antibodies to CMV immediate early proteins IE-1 and IE-2 (MAb810) and to cellular β-actin were purchased from Millipore (Billerica, Mass.). Confluent cells were infected with CMV in the presence of artemisinin compounds. At the indicated times cells were harvested in sample buffer (RIPA buffer, Tris 50 mM, Nacl 150 mM, SDS 0.1%, Na Deoxycholate 0.5%, NP40 1%, and protease inhibitor cocktail), boiled and loaded onto SDS-PAGE. Proteins were separated by electrophoresis and transferred to nitrocellulose membrane. After blocking, blots were probed with primary antibody (1:3,000) overnight at 4° C. in phosphate-buffered saline, and Tween. After washing 3 times, blots were probed with HRP-conjugated anti-mouse (Sigma), 1:5,000 for 1 hour at room temperature. Blots were washed three times in phosphate-buffered saline/Tween, and then developed by enhanced chemiluminescence according to manufacturer protocol.\nThe expression of CMV immediate early (IE) protein was tested by western blot to determine whether artemisinins' inhibition of CMV replication occurs early in the virus life cycle. […] Further evidence for the early effect of artemisinins on IE1 protein expression was obtained with the clinical isolate (SB, FIG. 5b). […] Stinski M F. Sequence of protein synthesis in cells infected by human cytomegalovirus: early and late virus-induced polypeptides. J Virol. 1978; 26:686-701."}, "[6]": {"tested_on": "Human Foreskin Fibroblasts (HFF)", "protocol": "as §2, §3"}, "[7]": {"tested_on": "GFP-tagged CMV (Towne-GFP)", "assay": "GFP-tagged CMV replication in pretreated HFF", "type": "cell-based, human CMV", "details": "pretreatment of HFF with different concentrations; data not shown", "method": "The CMV strains used for infections were the highly-passaged Towne virus, and a clinical isolate obtained from the urine of a neonate with congenital CMV infection (SB) and passaged once in tissue culture. […] Initial experiments were performed using a recombinant human CMV-green fluorescent protein (GFP) virus, derived from Towne strain. […] J Virol.\nas §1"}, "[8]": {"tested_on": "Toxoplasmosis (Toxoplasma gondii)", "assay": "Anti-toxoplasmosis activity of supernatants of CMV infected cells", "type": "cell-based", "details": "supernatants of CMV infected cells at 3-5 days post infection", "method": "To confirm that the difference in anti-CMV activity between monomers and dimers was not a result of instability of the monomers in tissue culture, the anti-toxoplasmosis activity of these compounds was determined in the supernatants of CMV infected cells at 3-5 days post infection. […] Antimicrob Agents Chemother. 2006; 50:4206-4208."}}, "note": "Read-outs that look alike come from different tables or passages of the source."}
{"smiles": "C[C@H]1[C@H](OC(=O)CCC(=O)O)O[C@@H]2O[C@@]3(C)CC[C@H]4[C@H](C)CC[C@@H]1[C@@]24OO3", "note": "[Artesunate (2d), Artesunate]", "values": [{"measurement": "EC50", "setting": "[1]; Human betaherpesvirus 5", "value": "18.5 ± 5.2", "unit": "µM"}, {"measurement": "in-vitro inhibition of clinical isolates", "setting": "[2]", "value": "50-80%"}, {"measurement": "CC50", "setting": "[3]", "value": "77.5 ± 14.4", "unit": "µM"}]}
{"smiles": "Nc1nc(O)c2ncn(COC(CO)CO)c2n1", "note": "[GCV, Ganciclovir]", "values": [{"measurement": "CMV inhibition compared with the four monomers", "setting": "[1]; 10 μM, FIG. 2", "value": "more potent"}, {"measurement": "reduction in plaque formation", "setting": "[4]", "value": 80, "unit": "%"}, {"measurement": "IE1 expression", "setting": "[5]; 10 μM", "value": "not affected"}]}
{"smiles": "C[C@H]1[C@@H](CCC(=O)Nc2ccc(F)cc2)O[C@@H]2OC3(C)CC[C@H]4[C@H](C)CC[C@@H]1[C@@]24OO3", "note": "[Artefanilide (3), Artefanilide]", "values": [{"measurement": "EC50", "setting": "[1]; Table 1, 50% virus inhibition, mean and SD, at least five experiments in triplicates, read-out: EC50", "value": "8.1 ± 2.2", "unit": "µM"}, {"measurement": "CC50", "setting": "[6]", "value": "44.9 ± 3.4", "unit": "µM"}]}
{"smiles": "C[C@@H]1CC[C@H]2[C@@H](C)C(=O)O[C@@H]3O[C@@]4(C)CC[C@@H]1[C@]32OO4", "note": "[Artemisinin (1), Artemisinin]", "values": [{"measurement": "expression of IE1 and GFP", "setting": "[5]; MOI of 0.1", "value": "undetectable"}, {"measurement": "expression of IE1 and GFP", "setting": "[5]; MOI of 0.5", "value": "decreased"}, {"measurement": "CMV replication", "setting": "[7]", "value": "dose-dependent reduction"}]}
{"smiles": "C[C@H]1[C@@H](CC(C[C@H]2O[C@@H]3O[C@@]4(C)CC[C@H]5[C@H](C)CC[C@@H]([C@H]2C)[C@@]35OO4)CS(=O)(=O)c2ccc(COC(=O)N(C)C)cc2)O[C@@H]2O[C@@]3(C)CC[C@H]4[C@H](C)CC[C@@H]1[C@@]24OO3", "note": "(stereo partly drawn) [Dimer sulfone carbamate (6)]", "values": [{"measurement": "inhibition of CMV replication", "setting": "[1]", "value": "dramatic inhibition"}]}
{"smiles": "C[C@H]1[C@@H](CC(COP(=O)(Oc2ccccc2)Oc2ccccc2)C[C@H]2O[C@@H]3O[C@@]4(C)CC[C@H]5[C@H](C)CC[C@@H]([C@H]2C)[C@@]35OO4)O[C@@H]2O[C@@]3(C)CC[C@H]4[C@H](C)CC[C@@H]1[C@@]24OO3", "note": "(stereo partly drawn) [Dimer isobu-OP(O)(OPh)2]", "values": [{"measurement": "rank as CMV inhibitor among eight representative dimers", "setting": "[1]; FIGS. 7 and 8", "value": "most potent"}, {"measurement": "selectivity index", "setting": "[1]; eight representative dimers, FIGS. 7 and 8", "value": "> 1000"}]}
{"smiles": "C[C@H]1[C@@H](CC(CO)C[C@H]2O[C@@H]3O[C@@]4(C)CC[C@H]5[C@H](C)CC[C@@H]([C@H]2C)[C@@]35OO4)O[C@@H]2O[C@@]3(C)CC[C@H]4[C@H](C)CC[C@@H]1[C@@]24OO3", "note": "(stereo partly drawn) [Dimer primary alcohol (4)]", "values": [{"measurement": "inhibition of CMV replication", "setting": "[1]", "value": "dramatic inhibition"}, {"measurement": "EC50", "setting": "[8]", "value": "0.4 ± 0.15", "unit": "µM"}, {"measurement": "time post infection at which inhibition of IE1 expression was observed (as early as)", "setting": "[5]; SB, MOI=3, prior to onset of DNA replication", "value": 12, "unit": "h"}, {"measurement": "IE1 expression", "setting": "[5]; 1-μM, 24 and 48 hr", "value": "significantly reduced"}]}
